Assay results taken from patent US20220372014A1, “NEUROPROTECTIVE COMPOUNDS AND METHODS OF USE THEREOF” (The Johns Hopkins University, priority 2019, published 2022).

What was measured:
MIF = target: T1, MIF (Homo sapiens, UniProt P14174); assay: Nuclease assay of Example 3 (MIF inhibitory activity, Table 4); assay type: biochemical; design: (%) inhibition of MIF nuclease activity: concentration or dose not given beside the values; settings: nuclease assay of Example 3
T1 sequence (P14174 1-115): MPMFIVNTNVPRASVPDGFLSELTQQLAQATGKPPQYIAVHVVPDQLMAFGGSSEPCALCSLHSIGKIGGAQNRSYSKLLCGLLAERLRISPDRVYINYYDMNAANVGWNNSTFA
Description: A rapafucin library was synthesized as described in WO2017/136708 and Guo et al. (2018) Nat. Chem. 11:254-63. The hybrid macrocyclic library consisted of 45,000 compounds in pools of 15 individual compounds. The library compounds were screened for MIF inhibitory activity using a nuclease assay as detailed in FIG. 1 and below.
Nuclease assay: Human genomic DNA (200 ng/reaction, Promega), pcDNA (200 ng/reaction) or PS^30 and its related and non-related substrates (1 μM) was incubated with wild type MIF or its variants at a final concentration of 0.25-8 μM as indicated in 10 mM Tris-HCl buffer (pH 7.0) containing 10 mM MgCl2 and 1 mM DTT or specific buffer as indicated, for 1 h (with pcDNA and small DNA substrates) or 4 h (with human genomic DNA) at 37° C. The reaction was terminated with loading buffer containing 10 mM EDTA and incubation on ice. The human genomic DNA samples were immediately separated on a 1.2% pulse field certified agarose in 0.5×TBE buffer with initial switch time of 1.5 s and a final switch time of 3.5 s for 12 h at 6 V/cm. pcDNA samples were determined by 1% agarose gel. Small DNA substrates were separated on 15% or 25% TBE-urea polyacrylamide (PAGE) gel or 20% TBE PAGE gel. Then gel was stained with 0.5 μg/ml Ethidium Bromide (EtBr) followed by electrophoretic transfer to nylon membrane. Then, Biotin-labeled DNA is further detected by chemiluminescence using Chemiluminescent Nucleic Acid Detection Module (Thermo Scientific).
Structure-activity relationship (SAR) analysis was then conducted on the compounds identified as having MIF inhibitory activity. Compounds having the structure of Formula (I) were then synthesized as shown in Example 1 and tested for MIF inhibitory activity using the nuclease assay described herein and neuronal protection via a cell death assay as detailed below.

[1] = test system: HeLa cells or neuronal cells; assay: Cell death assay of Example 3 (MNNG, alamarBlue; protection against parthanatos, Table 4); assay type: cell-based; settings: 1 μM test compound, MNNG-induced cell death, alamarBlue
Description: Cell death assay: 200 μl of cells (HeLa cells or neuronal cells) culture (1×10^4 cells/well) were plated into the wells of a sterile 96-well cell culture plate. The cells were incubated for 18 hours at 37° C. The medium was removed and changed with 100 μl/well of 1 μM test compound. Incubate for 1 hours at 37° C. Ten μl of 500 μM MNNG (N-Methyl-N′-nitro-N-nitrosoguanidine) was added to each well. The medium was aspirated well and incubated for 15 min at 37° C. The cells were washed with the fresh medium. The medium was changed with 1 μM of test compound and incubated for 18 hours at 37° C. 10 μl/well of alamarBlue reagent was added directly to the well and incubated for 1 to 4 hours at 37° C. Fluorescence was measured using a fluorescence excitation wavelength of 560 nm and emission at 590 nm. The percentage of cell death was determined as the ratio of live to dead cells compared with the percentage of cell death in control wells to account for cell death attributed to mechanical stimulation of the cultures.

## COc1ccc(CC[C@H]2OC(=O)[C@@H]3CCCCN3C(=O)C(=O)C(C)(C)COC(=O)C=CCCN(C)C(=O)[C@@H]3CCCN3C(=O)[C@H](COC(C)(C)C)N(C)C(=O)[C@H](c3ccccc3)NC(=O)[C@H](C)N(C)C(=O)COc3cc(F)cc2c3)cc1OC (racemic) [compound 154]
MIF
  (%) inhibition of MIF nuclease activity: 38.2%
[1]
  (%) inhibition of cell death: 46.2%

## COc1ccc(CC[C@H]2OC(=O)[C@@H]3CCCCN3C(=O)C(=O)C(C)(C)COC(=O)C=CCCN(C)C(=O)[C@H](c3ccccc3)NC(=O)[C@H](COC(C)(C)C)N(C)C(=O)C(c3ccccc3)NC(=O)CN(C)C(=O)COc3cccc2c3)cc1OC (stereo partly drawn) [compound 45]
MIF
  (%) inhibition of MIF nuclease activity: 15.4%
[1]
  (%) inhibition of cell death: 51.9%

## COc1ccc(CC[C@H]2OC(=O)[C@@H]3CCCCN3C(=O)C(=O)C(C)(C)COC(=O)C=CCCN(C)C(=O)[C@@H](Cc3ccccc3)NC(=O)[C@H](COC(C)(C)C)N(C)C(=O)C(c3ccccc3)NC(=O)[C@H](C)N(C)C(=O)COc3cccc2c3)cc1OC (stereo partly drawn) [compound 54]
MIF
  (%) inhibition of MIF nuclease activity: 15.9%
[1]
  (%) inhibition of cell death: 56.0%

## COc1ccc(CC[C@H]2OC(=O)[C@@H]3CCCCN3C(=O)C(=O)C(C)(C)COC(=O)C=CCCN(C)C(=O)[C@@H]3CCCN3C(=O)[C@H](COCc3ccccc3)N(C)C(=O)C(c3ccccc3)NC(=O)[C@H](C)N(C)C(=O)COc3cccc2c3)cc1OC (stereo partly drawn) [compound 96]
MIF
  (%) inhibition of MIF nuclease activity: 32.7%
[1]
  (%) inhibition of cell death: 69.1%

## COCC[C@@H]1NC(=O)[C@H](COC(C)(C)C)N(C)C(=O)[C@H](Cc2ccc3ccccc3c2)NC(=O)[C@H](C)N(C)C(=O)COc2cccc(c2)[C@@H](CCc2ccc(OC)c(OC)c2)OC(=O)[C@@H]2CCCCN2C(=O)C(=O)C(C)(C)COC(=O)C=CCCN(C)C1=O [compound 20]
MIF
  (%) inhibition of MIF nuclease activity: 42.2%
[1]
  (%) inhibition of cell death: 60.6%

## COc1ccc(CC[C@H]2OC(=O)[C@@H]3CCCCN3C(=O)C(=O)C(C)(C)COC(=O)C=CCCN(C)C(=O)[C@@H](C)NC(=O)[C@H](COC(C)(C)C)N(C)C(=O)C(c3ccccc3)NC(=O)CN(C)C(=O)COc3cccc2c3)cc1OC (stereo partly drawn) [compound 33]
MIF
  (%) inhibition of MIF nuclease activity: 12.6%
[1]
  (%) inhibition of cell death: 53.4%

## COc1ccc(CC[C@H]2OC(=O)[C@@H]3CCCCN3C(=O)C(=O)C(C)(C)COC(=O)C=CCCN(C)C(=O)[C@H](Cc3ccc(F)cc3)NC(=O)[C@H](Cc3ccccc3)N(C)C(=O)[C@@H](C)NC(=O)CN(C)C(=O)COc3cccc2c3)cc1OC [compound 70]
MIF
  (%) inhibition of MIF nuclease activity: 25.2%
[1]
  (%) inhibition of cell death: 53.8%

## COc1ccc(CC[C@H]2OC(=O)[C@@H]3CCCCN3C(=O)C(=O)C(C)(C)COC(=O)C=CCCN(C)C(=O)[C@@H]3CCCN3C(=O)[C@H](COC(C)(C)C)N(C)C(=O)C(c3ccccc3)NC(=O)[C@H](C)N(C)C(=O)COc3cccc2c3)c(O)c1OC (stereo partly drawn) [compound 119]
MIF
  (%) inhibition of MIF nuclease activity: 19.7%
[1]
  (%) inhibition of cell death: 60.7%

## COc1ccc(CC[C@H]2OC(=O)[C@@H]3CCCCN3C(=O)C(=O)C(C)(C)COC(=O)C=CCCN(C)C(=O)[C@H](CC3CCCCC3)NC(=O)[C@H](Cc3ccccc3)N(C)C(=O)[C@@H](C)NC(=O)CN(C)C(=O)COc3cccc2c3)cc1OC [compound 72]
MIF
  (%) inhibition of MIF nuclease activity: 21.2%
[1]
  (%) inhibition of cell death: 55.3%

## COc1ccc(CC[C@H]2OC(=O)[C@@H]3CCCCN3C(=O)C(=O)C(C)(C)COC(=O)C=CCCN(C)C(=O)[C@H](C)NC(=O)[C@H](COC(C)(C)C)N(C)C(=O)C(c3ccccc3)NC(=O)CN(C)C(=O)COc3cccc2c3)cc1OC (stereo partly drawn) [compound 32]
MIF
  (%) inhibition of MIF nuclease activity: 11.2%
[1]
  (%) inhibition of cell death: 54.3%

## COc1ccc(CC[C@H]2OC(=O)[C@@H]3CCCCN3C(=O)C(=O)C(C)(C)COC(=O)C=CCCN(C)C(=O)[C@H](C)NC(=O)[C@H](COC(C)(C)C)N(C)C(=O)C(c3ccccc3)NC(=O)[C@H](C)N(C)C(=O)COc3cccc2c3)cc1OC (stereo partly drawn) [compound 47]
MIF
  (%) inhibition of MIF nuclease activity: 52.3%
[1]
  (%) inhibition of cell death: 54.2%

## C=CC(=O)OCC(C)(C)C(=O)C(=O)N1CCCC[C@H]1C(=O)O[C@H](CCc1ccc(OC)c(OC)c1)c1cncc(OCC(=O)N(C)[C@@H](C)C(=O)NC(C(=O)N(C)[C@@H](COC(C)(C)C)C(=O)N2CCC[C@H]2C(=O)N(C)CC/C=C\CCO)c2ccccc2)c1 (stereo partly drawn) [compound 129]
MIF
  (%) inhibition of MIF nuclease activity: 29.5%
[1]
  (%) inhibition of cell death: 43.0%

## COc1ccc(CC[C@H]2OC(=O)[C@@H]3CCCCN3C(=O)C(=O)C(C)(C)COC(=O)C=CCCN(C)C(=O)[C@H](C)NC(=O)[C@H](Cc3ccccc3)N(C)C(=O)[C@@H](C)NC(=O)CN(C)C(=O)COc3cccc2c3)cc1OC [compound 62]
MIF
  (%) inhibition of MIF nuclease activity: 13.1%
[1]
  (%) inhibition of cell death: 53.7%

## COc1ccc(CC[C@H]2OC(=O)[C@@H]3CCCCN3C(=O)C(=O)C(C)(C)COC(=O)C=CCCN(C)C(=O)[C@@H](CC(C)C)NC(=O)[C@H](Cc3ccccc3)N(C)C(=O)[C@@H](C)NC(=O)CN(C)C(=O)COc3cccc2c3)cc1OC [compound 67]
MIF
  (%) inhibition of MIF nuclease activity: 76.3%
[1]
  (%) inhibition of cell death: 73.7%

## COc1ccc(CC[C@H]2OC(=O)[C@@H]3CCCCN3C(=O)C(=O)C(C)(C)COC(=O)C=CCCN(C)C(=O)[C@@H]3CCCN3C(=O)[C@H](COC(C)(C)C)N(C)C(=O)[C@H](COC(C)(C)C)NC(=O)[C@H](C)N(C)C(=O)COc3cccc2c3)cc1OC [compound 140]
MIF
  (%) inhibition of MIF nuclease activity: 0.0%
[1]
  (%) inhibition of cell death: 51.0%

## COc1ccc(CC[C@H]2OC(=O)[C@@H]3CCCCN3C(=O)C(=O)C(C)(C)COC(=O)C=CCCN(C)C(=O)[C@@H](Cc3ccccc3)NC(=O)[C@H](COC(C)(C)C)N(C)C(=O)C(c3ccccc3)NC(=O)CN(C)C(=O)COc3cccc2c3)cc1OC (stereo partly drawn) [compound 39]
MIF
  (%) inhibition of MIF nuclease activity: 31.1%
[1]
  (%) inhibition of cell death: 57.5%

## COc1ccc(CC[C@H]2OC(=O)[C@@H]3CCCCN3C(=O)C(=O)C(C)(C)COC(=O)C=CCCN(C)C(=O)C(c3ccccc3)NC(=O)[C@H](COC(C)(C)C)N(C)C(=O)[C@H](Cc3ccc4ccccc4c3)NC(=O)[C@H](C)N(C)C(=O)COc3cccc2c3)cc1OC (stereo partly drawn) [compound 30]
MIF
  (%) inhibition of MIF nuclease activity: 18.6%
[1]
  (%) inhibition of cell death: 51.5%

## COc1ccc(CC[C@H]2OC(=O)[C@@H]3CCCCN3C(=O)C(=O)C(C)(C)COC(=O)C=CCCN(C)C(=O)[C@H](CC3CCCCC3)NC(=O)[C@H](COC(C)(C)C)N(C)C(=O)[C@@H](CC(C)C)NC(=O)CN(C)C(=O)COc3cccc2c3)cc1OC [compound 12]
MIF
  (%) inhibition of MIF nuclease activity: 28.9%
[1]
  (%) inhibition of cell death: 52.0%

## COc1ccc(CC[C@H]2OC(=O)[C@@H]3CCCCN3C(=O)C(=O)C(C)(C)COC(=O)C=CCCN(C)C(=O)[C@H](C)NC(=O)[C@H](COC(C)(C)C)N(C)C(=O)[C@@H](CC(C)C)NC(=O)CN(C)C(=O)COc3cccc2c3)cc1OC [compound 2]
MIF
  (%) inhibition of MIF nuclease activity: 15.3%
[1]
  (%) inhibition of cell death: 41.1%

## COc1ccc(CC[C@H]2OC(=O)[C@@H]3CCCCN3C(=O)C(=O)C(C)(C)COC(=O)C=CCCN(C)C(=O)[C@@H]3CCCN3C(=O)[C@H](COC(=O)CCC(=O)OCCOCCOCCOCCNC(=O)CCCCC3SC[C@H]4NC(=O)N[C@@H]34)N(C)C(=O)C(c3ccccc3)NC(=O)[C@H](C)N(C)C(=O)COc3cccc2c3)cc1OC (stereo partly drawn) [compound 130]
[1]
  (%) inhibition of cell death: 48.2%
